Reference: ChEMBL document CHEMBL1123975, “2-Phenylpyrroles as conformationally restricted benzamide analogues. A new class of potential antipsychotics. 2” (J Med Chem, 1988)
pKi: −log10 of the molar value.

Legend:
[1] = biological target: D(2) dopamine receptor (Rattus norvegicus, UniProt P61169); experiment: Displacement of [3H]-Spiperone from Dopamine receptor D2 in rat striatum
[2] = system: Rattus norvegicus; experiment: Suppression of conditioned avoidance behavior in rats after ip administration; format: functional
[3] = system: Rattus norvegicus; experiment: Suppression of conditioned avoidance behavior in rats following p.o. administration.; format: functional; settings: po
[4] = system: Mus musculus; experiment: Antagonism of apomorphine-induced climbing behavior in mice after ip administration; format: functional
[5] = system: Rattus norvegicus; experiment: Induction of catalepsy in rats when administered intraperitoneally 4 hr prior to measurement to groups of nine animals; format: functional; settings: ip
[6] = Activity calculated as Na+ ratio [IC50 (+Na+) / IC50 (-Na+)]; format: functional
[7] = biological target: Serotonin 2 (5-HT2) receptor (Rattus norvegicus, UniProt P30994+P08909+P14842); experiment: Potency to displace [3H]- Spiperone from 5-hydroxytryptamine 2 receptor […]
[8] = biological target: T1, Adrenergic receptor alpha-1 (Rattus norvegicus, UniProt P15823+P23944+P43140); experiment: Potency to displace [3H]- WB-4101 from alpha-1 adrenergic receptor in rat striatum
T1 sequence (P15823 whole entry): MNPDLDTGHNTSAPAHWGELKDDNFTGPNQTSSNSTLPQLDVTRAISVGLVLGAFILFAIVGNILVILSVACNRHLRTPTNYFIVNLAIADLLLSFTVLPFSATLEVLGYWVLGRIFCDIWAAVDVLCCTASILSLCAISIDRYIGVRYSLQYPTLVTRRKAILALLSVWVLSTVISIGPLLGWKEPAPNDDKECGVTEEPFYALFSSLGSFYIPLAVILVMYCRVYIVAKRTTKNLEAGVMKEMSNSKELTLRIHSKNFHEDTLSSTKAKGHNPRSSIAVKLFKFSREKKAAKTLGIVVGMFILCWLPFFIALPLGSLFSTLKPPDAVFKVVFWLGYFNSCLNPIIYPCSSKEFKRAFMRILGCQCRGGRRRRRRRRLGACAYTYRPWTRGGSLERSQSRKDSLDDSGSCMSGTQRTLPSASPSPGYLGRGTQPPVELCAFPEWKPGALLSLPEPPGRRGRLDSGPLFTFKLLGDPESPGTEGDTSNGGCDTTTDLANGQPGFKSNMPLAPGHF
T1 sequence (P23944 whole entry): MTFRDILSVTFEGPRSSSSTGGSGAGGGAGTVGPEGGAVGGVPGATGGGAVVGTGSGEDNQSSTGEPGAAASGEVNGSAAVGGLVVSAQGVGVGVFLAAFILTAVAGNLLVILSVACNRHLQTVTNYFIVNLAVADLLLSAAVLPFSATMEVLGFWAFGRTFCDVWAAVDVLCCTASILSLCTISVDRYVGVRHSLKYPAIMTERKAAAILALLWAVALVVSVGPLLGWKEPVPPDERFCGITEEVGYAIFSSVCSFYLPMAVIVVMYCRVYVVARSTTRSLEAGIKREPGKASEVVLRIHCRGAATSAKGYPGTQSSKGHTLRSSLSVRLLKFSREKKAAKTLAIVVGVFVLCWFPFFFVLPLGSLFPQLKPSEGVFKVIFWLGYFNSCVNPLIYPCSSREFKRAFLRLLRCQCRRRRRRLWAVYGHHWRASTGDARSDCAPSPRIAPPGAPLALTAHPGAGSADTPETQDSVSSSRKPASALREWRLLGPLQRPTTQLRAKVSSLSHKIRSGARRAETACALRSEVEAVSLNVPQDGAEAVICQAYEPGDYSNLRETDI
T1 sequence (P43140 whole entry): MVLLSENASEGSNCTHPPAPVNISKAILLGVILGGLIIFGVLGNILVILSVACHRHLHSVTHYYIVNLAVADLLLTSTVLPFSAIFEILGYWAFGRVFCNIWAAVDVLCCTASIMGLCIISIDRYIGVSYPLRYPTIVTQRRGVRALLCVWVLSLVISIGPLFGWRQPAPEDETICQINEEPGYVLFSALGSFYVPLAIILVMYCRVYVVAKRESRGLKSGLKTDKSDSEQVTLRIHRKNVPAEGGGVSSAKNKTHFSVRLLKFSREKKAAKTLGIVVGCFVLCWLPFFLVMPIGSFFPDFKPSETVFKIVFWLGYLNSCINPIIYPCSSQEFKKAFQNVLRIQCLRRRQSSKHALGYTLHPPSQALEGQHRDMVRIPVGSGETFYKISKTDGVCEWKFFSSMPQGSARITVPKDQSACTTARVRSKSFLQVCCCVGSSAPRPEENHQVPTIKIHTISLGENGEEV

Chain of D(2) dopamine receptor (P61169 whole entry): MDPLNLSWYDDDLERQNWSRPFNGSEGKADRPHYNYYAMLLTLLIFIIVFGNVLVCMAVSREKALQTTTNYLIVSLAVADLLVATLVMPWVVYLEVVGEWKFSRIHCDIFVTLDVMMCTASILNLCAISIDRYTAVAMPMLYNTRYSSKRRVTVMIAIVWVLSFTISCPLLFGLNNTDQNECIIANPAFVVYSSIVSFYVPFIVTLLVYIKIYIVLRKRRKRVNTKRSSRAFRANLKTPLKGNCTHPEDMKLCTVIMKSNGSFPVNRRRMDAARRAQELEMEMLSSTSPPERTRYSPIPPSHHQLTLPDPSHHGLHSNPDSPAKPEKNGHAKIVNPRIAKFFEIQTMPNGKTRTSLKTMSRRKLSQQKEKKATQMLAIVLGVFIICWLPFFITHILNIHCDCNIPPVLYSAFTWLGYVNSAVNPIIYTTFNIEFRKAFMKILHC

SMILES | pKi [1] | ED50 [2] [mg/kg] | ED50 [3] [mg/kg] | also measured
Fc1ccc(-c2ccc(CN3CCC(c4ccccc4)CC3)[nH]2)cc1 | 7.96 | > 100 | – | –
COc1ccccc1C1CCN(Cc2ccc(-c3ccccc3)[nH]2)CC1 | 9.00 | – | 100 | ED50 [4]: 1.7 mg/kg
O=C(c1ccc(F)cc1)C1CCN(Cc2ccc(-c3ccc(F)cc3)[nH]2)CC1 | 7.92 | – | 34 | –
COc1ccccc1N1CCN(CCNC(=O)c2ccc(F)cc2)CC1 | – | 0.7 | – | –
c1ccc(-c2ccc(CN3CCN(c4cccc5c4OCCCO5)CC3)[nH]2)cc1 | 9.17 | – | 12 | ED50 [4]: 0.2 mg/kg
COc1ccccc1N1CCN(Cc2ccc(-c3ccc(F)cc3)n2CCO)CC1 | 7.28 | – | > 100 | –
COc1ccccc1N1CCN(Cc2ccc(-c3ccccc3)n2-c2ccccc2)CC1 | 6.80 | – | > 100 | –
COc1ccccc1N1CCN(Cc2ccc(-c3ccc(F)cc3)n2C)CC1 | 7.70 | – | – | –
COc1ccccc1N1CCN(CCCC(=O)c2ccc(F)cc2)CC1 [FLUANISONE] | 8.62 | – | – | Na+ ratio [6]: 1.4
CCCn1c(CN2CCN(c3ccccc3OC)CC2)ccc1-c1ccc(F)cc1 | 6.96 | > 50 | – | –
COc1ccccc1-c1ccc(CN2CCN(c3ccccc3OC)CC2)[nH]1 | 8.19 | > 100 | – | –
OCCN1CCN(Cc2ccc(-c3ccc(F)cc3)[nH]2)CC1 | 4.51 | > 100 | – | –
CCS(=O)(=O)c1ccc(OC)c(-c2ccc(CN3CCN(c4ccccc4OC)CC3)[nH]2)c1 | 8.15 | – | – | –

Now from value to molecule, other results behind:

pKi [1] | SMILES | ED50 [2] [mg/kg] | ED50 [3] [mg/kg] | also measured
8.36 | COc1ccccc1N1CCN(Cc2ccc(-c3cccc(Cl)c3)[nH]2)CC1 | – | > 100 | –
7.60 | COc1ccccc1N1CCN(Cc2ccc(-c3ccc(C(F)(F)F)cc3)[nH]2)CC1 | – | 45 | –
6.92 | O=C(c1ccc(F)cc1)N1CCN(Cc2ccc(-c3ccc(F)cc3)[nH]2)CC1 | – | 34 | –
7.72 | Fc1ccc(-c2ccc(CN3CCN(c4cccc(C(F)(F)F)c4)CC3)[nH]2)cc1 | – | 21 | –
9.02 | COc1ccccc1N1CCN(Cc2ccc(-c3ccc(F)cc3)[nH]2)CC1 | – | – | ED50 [5]: > 23 mg/kg; Na+ ratio [6]: 2.3
9.12 | COc1ccccc1N1CCN(Cc2ccc(-c3ccccc3)[nH]2)CC1 | 1.9 | 13 | ED50 [4]: 0.4 mg/kg
7.23 | COc1ccccc1N1CCN(Cc2ccc(-c3ccc(C(C)C)cc3)[nH]2)CC1 | > 100 | – | –
7.80 | Fc1ccc(-c2ccc(CN3CCN(c4ccc(F)cc4)CC3)[nH]2)cc1 | – | 40 | –
8.15 | O=C(NCCN1CCN(c2cccc3ccoc23)CC1)c1ccc(F)cc1 | 2.7 | 21 | Ki [7]: 0.029 µM; Ki [8]: 0.0097 µM; ED50 [4]: 1.8 mg/kg; ED50 [5]: > 30 mg/kg; Na+ ratio [6]: 2.5
8.29 | O=C(CCCN1CCN(c2cccc3ccoc23)CC1)c1ccc(F)cc1 | 5.6 | 7.6 | Ki [7]: 0.0082 µM; Ki [8]: 0.0015 µM; ED50 [4]: 5 mg/kg; Na+ ratio [6]: 1.4
8.96 | COc1ccccc1N1CCN(Cc2ccc(-c3c(F)cccc3F)[nH]2)CC1 | – | 30 | –
9.35 | Fc1ccc(-c2ccc(CN3CCN(c4cccc5ccoc45)CC3)[nH]2)cc1 [ELOPIPRAZOLE] | 5.4 | 2.5 | Ki [7]: 0.12 µM; Ki [8]: 0.22 µM; ED50 [4]: 2.3 mg/kg; ED50 [5]: > 54 mg/kg; Na+ ratio [6]: 2
